From patent publication US10844052B2, “LLS compounds for treatment of cancer” (THE REGENTS OF THE UNIVERSITY OF CALIFORNIA, priority 2016, dated 2020)

Test system: PC3 prostate cancer cells
Assay: Cell viability of prostate cancer PC3 cells after 72 hours treatment
Format: cell-based
Conditions: Homo sapiens; for viability at 2.5 µM: PC-3, 2.5 μM; for viability at 5 µM: PC-3, 5 μM; for viability at 10 µM: PC-3, 10 μM; for viability at 20 µM: PC-3, 20 μM
Protocol: Effects of compounds LLS42-LLS80 on the viability of PC3 prostate cancer cells after 72 hours of treatment are shown in Table 2 below: […]

Row | Structure (SMILES) | viability at 2.5 µM [%] | viability at 5 µM [%] | viability at 10 µM [%] | viability at 20 µM [%]
1 | NC(=O)CC(NCC1CCCCC1)c1ccc2c(c1)nc(-c1ccc(N(CCO)CCO)cc1)n2Cc1ccc(OC(F)(F)F)cc1 (stereo not drawn) [LLS42, 3-(2-(4-(bis(2-hydroxyethyl)amino)phenyl)-1-(4-(trifluoromethoxy)benzyl)-1H-benzo[d]imidazol-5-yl)-3-((cyclohexylmethyl)amino)propanamide] | 95 | 92 | 49 | 0
2 | COc1cc(CNC(CC(N)=O)c2ccc3c(c2)nc(-c2ccc(N(CCO)CCOC(C)=O)cc2)n3C(C)C)cc(Br)c1OC (stereo not drawn) [LLS43, 2-((4-(5-(3-amino-1-((3-bromo-4,5-dimethoxybenzyl)amino)-3-oxopropyl)-1-isopropyl-1H-benzo[d]imidazol-2-yl)phenyl)(2-hydroxyethyl)amino)ethyl Acetate] | 105 | 102 | 101 | 105
3 | COc1cc(CNC(CC(N)=O)c2ccc3c(c2)nc(-c2ccc(N(CCOC(C)=O)CCOC(C)=O)cc2)n3C(C)C)cc(Br)c1OC (stereo not drawn) [LLS43Ac, ((4-(5-(3-amino-1-((3-bromo-4,5-dimethoxybenzyl)amino)-3-oxopropyl)-1-isopropyl-1H-benzo[d]imidazol-2-yl)phenyl)azanediyl)bis(ethane-2,1-diyl) Diacetate] | 97 | 102 | 103 | 97
4 | NCCn1c(-c2ccc(N(CCO)CCO)cc2)nc2cc(C(CC(N)=O)NCc3ccc(Br)s3)ccc21 (stereo not drawn) [LLS45, 3-(1-(2-aminoethyl)-2-(4-(bis(2-hydroxyethyl)amino)phenyl)-1H-benzo[d]imidazol-5-yl)-3-(((5-bromothiophen-2-yl)methyl)amino)propanamide] | 92 | 102 | 118 | 117
5 | CC(=O)OCCN(CCOC(C)=O)c1ccc(-c2nc3cc(C(CC(N)=O)NCc4ccc(Br)s4)ccc3n2CCN)cc1 (stereo not drawn) [LLS45Ac, ((4-(5-(3-amino-1-(((5-bromothiophen-2-yl)methyl)amino)-3-oxopropyl)-1-(2-aminoethyl)-1H-benzo[d]imidazol-2-yl)phenyl)azanediyl)bis(ethane-2,1-diyl) Diacetate] | 98 | 98 | 98 | 91
6 | NC(=O)CC(NCc1ccc(Cl)c(Cl)c1)c1ccc2c(c1)nc(-c1ccc(N(CCO)CCO)cc1)n2CCCN1CCCCC1 (stereo not drawn) [LLS46, 3-(2-(4-(bis(2-hydroxyethyl)amino)phenyl)-1-(3-(piperidin-1-yl)propyl)-1H-benzo[d]imidazol-5-yl)-3-((3,4-dichlorobenzyl)amino)propanamide] | 86 | 97 | 92 | 94
7 | NC(=O)CC(NCc1ccc(-c2cncnc2)cc1)c1ccc2c(c1)nc(-c1ccc(N(CCO)CCO)cc1)n2Cc1ccc(OC(F)(F)F)cc1 (stereo not drawn) [LLS51, 3-(2-(4-(bis(2-hydroxyethyl)amino)phenyl)-1-(4-(trifluoromethoxy)benzyl)-1H-benzo[d]imidazol-5-yl)-3-((4-(pyrimidin-5-yl)benzyl)amino)propanamide] | 83 | 79 | 99 | 105
8 | NC(=O)CC(NCc1cccn1S(=O)(=O)c1ccccc1)c1ccc2c(c1)nc(-c1ccc(N(CCO)CCO)cc1)n2CCCN1CCCCC1 (stereo not drawn) [LLS52, 3-(2-(4-(bis(2-hydroxyethyl)amino)phenyl)-1-(3-(piperidin-1-yl)propyl)-1H-benzo[d]imidazol-5-yl)-3-(((1-(phenylsulfonyl)-1H-pyrrol-2-yl)methyl)amino)propanamide] | 97 | 96 | 87 | 84
9 | CC(=O)OCCN(CCOC(C)=O)c1ccc(-c2nc3cc(C(CC(N)=O)NCc4cccn4S(=O)(=O)c4ccccc4)ccc3n2CCCN2CCCCC2)cc1 (stereo not drawn) [LLS52Ac, ((4-(5-(3-amino-3-oxo-1-(((1-(phenylsulfonyl)-1H-pyrrol-2-yl)methyl)amino)propyl)-1-(3-(piperidin-1-yl)propyl)-1H-benzo[d]imidazol-2-yl)phenyl)azanediyl)bis(ethane-2,1-diyl) Diacetate] | 91 | 96 | 94 | 91
10 | COc1ccc(CCn2c(-c3ccc(N(CCO)CCO)cc3)nc3cc(C(CC(N)=O)NCc4ccc5[nH]ncc5c4)ccc32)cc1 (stereo not drawn) [LLS53, 3-(((1H-indazol-5-yl)methyl)amino)-3-(2-(4-(bis(2-hydroxyethyl)amino)phenyl)-1-(4-methoxyphenethyl)-1H-benzo[d]imidazol-5-yl)propanamide] | 93 | 91 | 98 | 105
11 | COc1ccc(CCn2c(-c3ccc(N(CCOC(C)=O)CCOC(C)=O)cc3)nc3cc(C(CC(N)=O)NCc4ccc5[nH]ncc5c4)ccc32)cc1 (stereo not drawn) [LLS53Ac, ((4-(5-(1-(((1H-indazol-5-yl)methyl)amino)-3-amino-3-oxopropyl)-1-(4-methoxyphenethyl)-1H-benzo[d]imidazol-2-yl)phenyl)azanediyl)bis(ethane-2,1-diyl) Diacetate] | 97 | 94 | 99 | 101
12 | NCCCn1c(-c2ccc(N(CCO)CCO)cc2)nc2cc(C(CC(N)=O)NCc3ccc(C4CC=NN4)s3)ccc21 (stereo not drawn) [LLS54, 3-(1-(3-aminopropyl)-2-(4-(bis(2-hydroxyethyl)amino)phenyl)-1H-benzo[d]imidazol-5-yl)-3-(((5-(4,5-dihydro-1H-pyrazol-5-yl)thiophen-2-yl)methyl)amino)propanamide] | 90 | 86 | 105 | 87
13 | NC(=O)CC(NCc1ccc2[nH]ncc2c1)c1ccc2c(c1)nc(-c1ccc(N(CCO)CCO)cc1)n2Cc1ccc(OC(F)(F)F)cc1 (stereo not drawn) [LLS55, 3-(((1H-indazol-5-yl)methyl)amino)-3-(2-(4-(bis(2-hydroxyethyl)amino)phenyl)-1-(4-(trifluoromethoxy)benzyl)-1H-benzo[d]imidazol-5-yl)propanamide] | 91 | 100 | 102 | 92
14 | COc1ccc(CCn2c(-c3ccc(N(CCOC(C)=O)CCOC(C)=O)cc3)nc3cc(C(CC(N)=O)NCC4CCCCC4)ccc32)cc1 (stereo not drawn) [LLS56Ac, ((4-(5-(3-amino-1-((cyclohexylmethyl)amino)-3-oxopropyl)-1-(4-methoxyphenethyl)-1H-benzo[d]imidazol-2-yl)phenyl)azanediyl)bis(ethane-2,1-diyl) Diacetate] | 85 | 93 | 92 | 55
15 | COc1ccc(CCn2c(-c3ccc(N(CCO)CCO)cc3)nc3cc(C(CC(N)=O)NCC4CCCCC4)ccc32)cc1 (stereo not drawn) [LLS56] | 104 | 105 | 98 | 93
